Literature values in patent publication US4960900A, “Oxyimino derivatives of thiazole, method of preparation and use in therapy” (priority 1987, dated 1990).

Experiments:
[1] = prior art documents; cited from earlier work
[2] = prior art documents; cited from earlier work; remark: listed apart in the source

## Cc1ncsc1C(C)(C)O [2-(4-methylthiazol-5-yl)propan-2-ol]
[1]
  anticonvulsant properties (prior art): has anticonvulsant and antihypoxic properties
[2]
  antihypoxic properties (prior art): has anticonvulsant and antihypoxic properties
